From article PMC5057504, “Amyloid-β 1–24 C-terminal truncated fragment promotes amyloid-β 1–42 aggregate formation in the healthy brain” (Acta Neuropathologica Communications, 2016)

What was measured:
[1] = ATR-FTIR spectroscopy of peptide assemblies; format: physicochemical; details: 100 μM peptide (mix 50 μM each), incubated at 37 °C in PBS, 20 min to 6 days; hydrated film
Description: The in vitro aggregation of Aβ samples was monitored by ThT assay (Fig. 6a–c). ThT fluorescence emission was recorded at different incubation times at 37 °C in physiological buffer. […] Further, we recorded the emission fluorescence spectra of the samples incubated for 96 h at 37 °C after tyrosine excitation at 270 nm, which is also able to produce ThT fluorescence. […] The secondary structures of the peptide assemblies were also investigated by Fourier transform infrared (FTIR) spectroscopy in attenuated total reflection (ATR) (Fig. 6d). […] During incubation at 37 °C of H-Aβ42, this component increased in intensity while that at ~1695 cm^−1 decreased (Fig. 6d). These spectral changes have been already observed in the fibrillogenesis of Aβ peptides and of other proteins, and assigned to the conformational conversion towards fibrillar structures with a parallel orientation of the intermolecular β-sheets. […]
For the ATR-FTIR measurements, 2 μL of Aβ42 (at 100 μM concentration), of Aβ24 (at 100 μM concentration), or of the equimolar mixture of the two peptides (at 50 μM concentration each) were deposed on the single reflection diamond element of the ATR device (Quest, Specac, UK). Spectra were recorded after solvent evaporation to allow the formation of an hydrated film as previously described. […]

wt mice brain = test: Intracranial injection in wt mice: amyloid aggregate deposition (6E10 DAB, Congo red, ThT staining); format: in vivo, mouse; details: for ThT-positive aggregates in brain sections: 2.5 months after i.c. injection; for 6E10-positive aggregates in brain, 6 months after injection: i.c. injection of oligomeric peptide, 6E10 followed by HRP
Description: Mice were anesthetized and perfused with 0.9 % saline, followed by 4 % PFA. The 30 μm cryosections of brain were blocked in PBS containing 10 % goat serum and 0.1 % Triton X-100 for 1 h at room temperature before being incubated overnight at 4 °C with primary antibodies. The following day, the slides were rinsed in PBS and incubated at room temperature for 1 h with secondary antibody. The slides were processed using the ABC detection kit (Vector Laboratories). […] Immunofluorescence and ThT staining were performed on brain sections. Brain slices were washed three times in PBS and incubated for 1 h at room temperature in blocking solution (3 % BSA). Subsequently, the slides were washed 3 times and incubated overnight with specific antibodies. The next day, sections were washed in PBS and incubated for 2 h at room temperature with specific fluorochrome-conjugated secondary antibodies diluted in 3 % BSA in the dark. ThT solution was prepared as described above. Final solution was added to free floating slides for 1 min and very quickly washed with 80 % methanol followed by 3 washes with distilled water. Images were acquired by Virtual Slides microscope (VS120, Olympus). For quantification, both diffuse-plaques and dense-core plaques were considered, as described in [92]. Small dots and deposits at the slice edge were not counted. The entire surface of the slice was examined. For congo red histological staining, slices were air-dried on glass overnight, then stained with a 0.2 % congo red solution according to [93]. Specimens were acquired by transmittance polarized light microscopy, FITCH filtered epifluorescence. For quantification, bright field images were analyzed by color segmentation plugin-ImageJ software (NIH, Bethesda, MD). The entire area of deposits was considered.

TNF-alpha = TNF-alpha ELISA in serum and brain of intracranially injected wt mice; format: in vivo, mouse; details: wt mice 2.5 months after i.c. injection
Description: Stereotaxic intracranial injections in mice brains were made under a mixture of ketamine (100 mg/kg) and xylazine (10 mg/kg) anesthesia. After surgical exposure of dura mater, both the bregma and the skull surface served as the stereotaxic zero points. Using a Hamilton syringe, 4 μL of H-Aβ or vehicle (vehicle consists of physiological buffer−50 mM NaPi, 100 mM NaCl pH 7.4−) were injected into the neocortex (AP 1 mm, ML 2 mm, DV−2 mm) with a speed of 1.5 μL/min, the needle was kept in place for an additional minute before it was slowly drawn out. For each experiment 4 pmol of H-Aβ42, 4 pmol of H-Aβ24 and 2 pmol of H-Aβ42 plus 2 pmol of H-Aβ24 for the mix condition were injected, as described in [70, 90]. Different conditions were used for specific experiments as specified in the text. After suturing the incision, mice were maintained on a warm pad until recovery from the anesthesia, then returned to their cages.

wt mice = test: Behavioral tests (open field, social interaction, novel object recognition) after intracranial injection; format: in vivo, mouse; details: wt mice i.c. injected, compared with vehicle and age matched APP/PS1 mice
Description: Mice were placed in a multi-unit open field maze (ViewPoint instruments) with field chamber (25 cm long and 25 cm wide), and activity was recorded using ViewPoint video tracking software. Each quadrant was digitally divided into a peripheral and a central region using ViewPoint video tracking software. The central quadrants are collectively referred to as the center zone and peripheral quadrants are collectively referred to as the peripheral zone. Data were collected continually for 30 min and the distance traveled (cm), velocity (cm/s), and the distance traveled in the center zone versus the peripheral zone were all recorded and scored automatically. In the open field task ambulatory movements (valued as distance traveled and movement speeds) and anxiety-like behaviors (as the as distance traveled in the center zone versus the peripheral zone) can be assessed in response to a novel environment.
The social interaction test was used to measure how mice respond to a social partner during a 5-min test following isolation housing. Since isolation housing potentiates expression of innate territorial defensive responses, in this test we evaluated the reaction of mice to the presence of a new animal in free conditions in the same arena. […]
The test apparatus consisted of an open field box measuring 50 cm × 25 cm and all sessions were video-recorded. […]

murine Aβ = biological target: T1, murine Aβ (Mus musculus, UniProt P12023); test: Immunoblot of brain homogenate fractions with murine-Aβ-specific antibody m3.2; format: in vivo; details: wt mice analyzed 4 months after i.c. injection; supernatant and pellet
T1 construct: co-aggregation of the injected peptide and endogenously produced mouse Aβ42, retained in the brain; from tissue; host or cells: brain homogenate (supernatant and pellet fractions) of injected wild-type mice
Description: Animals were anesthetized and perfused with PBS before brains were removed, weighted and homogeneted in a mild hypotonic buffer (50 mM Tris pH 8, 150 mM NaCl, 5 mM EDTA supplemented with phosphatase and protease inhibitor, EDTA-free, Roche). Supernatants were then centrifuged for 1 h at 3000 × g to pellet insoluble material, including insoluble Aβ species. Samples were either frozen on dry ice or LDS sample buffer (Invitrogen) containg 5 % β-mercaptoethanol was immediately added. Pellets were directly resuspended in 20 μl of LDS sample buffer. 10 μl sample were loaded onto a Bolt 4–12 % Bis-Tris Plus Gels (Thermo Fisher) for Western Blot evaluation. Samples were separated using MES buffer and transferred onto a […] nitrocellulose membrane (Bio-Rad). Membranes were washed in TBS-Tween (150 mM NaCl, 50 mM Tris and 0.1 % (v/v) Tween-20) and incubated for 45 min at room temperature in blocking solution (5 % milk or 2.5 % serum bovine albumin in TBST). Membranes were subsequently probed overnight at 4 °C with primary antibodies diluted in TBS-T buffer. Membranes were washed extensively and incubated for 45 min at room temperature with horseradish peroxidase-conjugated (HRP) secondary antibody diluted in TBST buffer. Antibody-specific signals were detected using enhanced chemiluminescence reagents (Clarity Western ECL substrate, Bio-Rad).

T1 sequence (P12023 672-713 limits assumed): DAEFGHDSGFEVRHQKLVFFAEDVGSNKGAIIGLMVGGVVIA
Description for bEnd.3 cells: (ATCC® CRL2299™) were used as a representative BBB model. bEnd.3 cells were cultured at 37 °C, 5 % CO2/saturated humidity in DMEM supplemented with 10 % heat-inactivated fetal bovine serum (FBS), 1 % penicillin-streptomycin.
bEnd.3 cells were seeded at a concentration of 30000 cells/cm^2 onto geltrex-coated (thin layer; Gibco) transwell inserts (polycarbonate, 12 mm diameter, 3 μm pore size; Costar) until a monolayer was established.
To assess Aβ42 exchange across the BBB model, bEnd.3 cells were cultured upside-down on a transwells system as described above, until steady-state TEER had been reached. […] The level of fluorescence in the media collected was measured for 488-Aβ42 (λex = 503 nm and λem = 528 nm) or for FAM-Aβ42 (λex = 492 nm and λem = 518 nm) using a Synergy™ H4 Hybrid Multi-Mode Microplate Reader (BioTek). Relative fluorescence units were converted to concentration according to prepared standard, and were corrected for background fluorescence. […] Briefly, Aβ42 volume cleared (ΔVc) was calculated using the equation ΔVc = Clower × Vlower/Cupper, where Cupper and Clower are fluorescently-labeled Aβ42 concentrations in the donor and receiving compartments, respectively, and Vlower is the volume on the basolateral side. […] Permeability coefficients (P) were calculated by dividing against the surface area of the filter (1.12 cm^2). […]
Description for primary microglia: Primary microglia were obtained from mixed cultures prepared from the cerebral cortex of mice at the postnatal day 1 (P1-3). Microglia cells were isolated by shaking flasks for 45 min at 230 rpm at day 10 after plating. Cells were then seeded on poly-L-ornithine (Sigma) pre-coated wells at the density of 1,5×10^5 cell/mL in DMEM containing 20 % heat-inactivated fetal bovine serum (FBS) and incubated at 37 ° C in a humidified atmosphere of 5 % CO2 and 95 % air. Where indicated, cells were pre-treated for 45 min with protease inhibitors and EDTA 2.5 mM (Roche) which were directly added to the cell culture medium. […] When not differently indicated, for in vitro experiments microglia were treated with H-Aβ42 400 nM.
Aliquots of supernatant samples (200 μL) were loaded on nitrocellulose membrane Trans-Blot Transfer Medium (0.22 μm, Bio-Rad), by vacuum deposition on the Bio-Dot SF blotting apparatus (Bio-Rad). Serial dilution curves of Aβ42 synthetic protein were preliminarily run to obtain non-saturating condition of immunodetection. DB dots images were analysed by Image Lab™ software (Bio-Rad).
Aβ42 levels were determined using specific ELISA kit (Amyloid-beta (x-42) ELISA IBL, International) following manufacturer’s instructions. Briefly, 100 μL of sample was added into the pre-coated plate and was incubated overnight at 4 °C. After washing each well of the pre-coated plate, 100 μL of labeled antibody solution was added and the mixture was incubated for 1 h at 4 °C in the dark. After washing, chromogen was added and the mixture was incubated for 30 min at room temperature in the dark. After the addition of stop solution, the resulting color was assayed at 450 nm using a microplate absorbance reader (Synergy H4 Synergy™ H4 Microplate Reader, BioTek).

Row | Substance | ATR-FTIR Amide I band (secondary structure of the assemblies) [1] | ThT-positive aggregates in brain sections (wt mice brain) | 6E10-positive aggregates in brain, 6 months after injection (wt mice brain; 4 pmol (mix 2 + 2 pmol)) | TNF-alpha levels in serum and brains (TNF-alpha) | Behavioral phenotype (open field, sociality task, NOR) (wt mice) | Extracellular Aβ42 in microglia medium, ELISA with capture antibody 6E10 (N-terminal), detection 4G8 (primary microglia) | Extracellular Aβ42 in microglia medium, ELISA with capture antibody against the C-terminal domain (primary microglia) | Extracellular Aβ42 in microglia medium, dot blot with C-terminal anti-Aβ42 (primary microglia) | Internalization by microglia (primary microglia; primary microglia, 1 μM, 3 h of treatment) | 6E10-positive aggregates in brain, 2.5 months after injection (wt mice brain; i.c. injection, 4 pmol (mix 2 + 2 pmol)) | m3.2 positive bands (murine Aβ) in brain homogenate fractions (murine Aβ) | Effect of H-Aβ24 on the diffusion of fluorescently labeled scrambled H-Aβ42 (bEnd.3 cells) | H-Aβ42 apical-to-basolateral passage when pre-incubated with H-Aβ24, dot blot (bEnd.3 cells)
1 | Synthetic human Aβ1–42 [H-Aβ42] | higher intensity of the ~1628 cm^−1 peak | only ThT-positive blood vessels | did not cause Aβ deposition | much less | some behavioral alterations | lack of changes | significant decrease | reduction of extracellular Aβ42 | – | – | – | – | –
2 | HiLyte Fluor™ 488-labeled Beta-Amyloid (1–42) [488-conjugated H-Aβ42] | – | – | – | – | – | – | – | – | efficiently internalized | – | – | – | –
3 | synthetic human Aβ1-24 peptide [H-Aβ24] | two main peaks at ~1695 cm^−1 and ~1628 cm^−1 | ThT-positive aggregates were detected | induced the formation of aggregates | significant increase | cognitive defects comparable to APP/PS1 mice | – | – | – | – | already detectable | presence of m3.2 positive bands | No effect | decreased amount of H-Aβ42
